In patent publication US20090274738A1, “IMPLANTABLE DEVICES FOR PROMOTING REENDOTHELIALIZATION AND METHODS OF USE THEREOF” (priority 2008, published 2009):

Tests used:
[1] = tested on: foetal bovine aortic endothelial cell; details: cited from earlier work
[2] = tested on: endothelial progenitor cell; details: cited from earlier work
[3] = Tissue uptake of estradiol administered locally with a catheter; format: in vivo; details: 10 mg administered with a catheter over a few seconds
Description: Stents and hormone used for the procedures The polymer poly (ester-amide) (PEA)/estradiol (E2) stents used in Examples presented herein were prepared by MicroPort (MicroPort Medical Co, Ltd. Shanghai). Stainless steel bare metal stents were of 18 mm and 23 mm length and were spray coated by MicroPort with 300 μg or 500 μg of E2 matrixed with MediVas™ poly (ester-amide) (MVPEA.I.(Ac)) tempo polymer. […] The sizes of Cypher™ stents were; 3×18 mm, 3.5×18 mm, 3×23 mm, 3.5×23 mm (Johnson & Johnson). The sizes of Taxus™ stents were 2.25×12 mm, 3×16 mm, 3.5×16 mm, 3×24 mm, 3.5×24 mm (Boston Scientific). The estradiol (USP) used to load the polymer poly (ester-amide) (PEA)/E2 stents was bought from Xenex labs (Coquitlam, Canada) and send to Microport. The estradiol used for local delivery by catheter in the objective 2 was the water soluble form coupled with hydroxypropyl-heta-cyclodextrin (HPCD).

[4] = format: in vivo
Description: Tissue samples and stents were analyzed for each animal for estrogen content. The right coronary artery (RCA) and the left anterior descending artery (LAD) were opened longitudinally and cut into 6 pieces; 2 in the proximal region, 2 in the medial region and 2 in the distal region of the stented segment. One piece in each region was analyzed and the other one was kept as a backup. To evaluate the migration of E2 through the arterial wall, the left circumflex artery (LCX) was dissected to separate the adventitia from the rest of the artery and the two fractions were analyzed individually. […] After centrifugation, sera were collected for extraction and analysis by GC/MS.
Hormones Deuterium-labeled estradiol 2,4,16,16,17-D5 (17β-D5) (CDN Isotopes, Pointe Claire, Canada) and micronized estradiol (USP, Xenex labs, Coquitlam, Canada) were used respectively as internal and external controls.
Extraction of steroids—17β-estradiol extraction in pig serum. Blood samples of 8.5 mL were collected at specific time from each animal in the coronary sinus using an 8 French guiding catheter at baseline, 10 min and 1 hr after stent implantation and at sacrifice. Samples were centrifuged at 1800 rpm at 4° C. for 10 minutes. […]
Estrogen quantification data Estrogen quantification was performed by Gas Chromatography/Mass Spectroscopy (GC/MS) as described above. Diffusion of E2 from the stent was determined in tissue in direct contact with the stent (coronary tissues proximal, medial, distal (see FIG. 9)), in close proximity (reference proximal, reference distal, adventitia, peri-coronary muscle, peri-coronary white fat (see FIG. 10)) or at distal sites potentially exposed to E2 released from the stent into the blood (carotid artery, femoral artery, apex, auricle, lung, kidney and liver). To obtain the total amount of E2 in an artery, E2 content measured by GC/MS in the proximal, medial and distal portions of each stented coronary segment were added together. […] The E2 content of the total adventitia dissected from each RCA was also determined.

SMILES: C[C@]12CC[C@@H]3c4ccc(O)cc4CC[C@H]3[C@@H]1CC[C@@H]2O [estradiol, 17-β-Estradiol]
- concentration at which enhancement of foetal bovine aortic endothelial cell growth was lost [1]: ≥ 100 nM
- concentration with strong negative effect on endothelial progenitor cell growth [2]: ≥ 10 µM
- amount in the tissue overall [3]: 51 µg
- fraction of dose up-taken by the tissue [3]: 0.51%
- penetration of estradiol through the arterial wall ([4]; detected in adventitia, peri-coronary muscle and white fat tissues): deep penetration
- mean concentration of estradiol in coronary tissue ([4]; first 48 hours, 500 μg E2 stent): 12.0 μg/g of tissue
- E2 concentration in tissues at distal location from stent ([4]; in vivo): at baseline level
